Laboratory results reported in patent US5843402A, “Synthetic peptides for use in thrombus detection” (Antisoma Research Limited, priority 1989, dated 1998).

How the values were obtained:
[1] = test system: activated platelets in whole blood (ADP stimulated blood); test: Binding of radiolabelled peptides to ADP stimulated blood
Description: (§1) The results (Table 2) indicate that all four peptides can bind platelets in ADP stimulated blood and that higher incorporation can be achieved In clotted blood.
(§2) Iodogen tubes were prepared by dissolving Iodogen (1, 3, 4, 6-Tetrachloro-3α, 6α-diphenylglycouril) in chloroform at a concentration of 1 mg.ml-^1. Aliquots of 50 μl (50 μg Iodogen) were dispensed into polypropylene cryo-tubes and the chloroform evaporated to dryness. These tubes were then stored dessicated at -20° C. until required.
(§3) Prior to radiolabelling the peptides were dissolved in phosphate buffered saline (PBS) at a concentration of 50 mg.ml-^1. RGDSYC and […] were first dissolved in a small volume of dimethyl sulphoxide (DMSO) such that the final concentration of DMSO in PBS was 1% v/v.
(§4) Iodogen tubes were equilibrated to room temperature before the addition of 200 μl peptide solution and 1-10 μl of ^123 I (in aqueous solution). The reaction mixture was then left for 15min at room temperature with occasional shaking. Following the incubation period the reaction mixture was removed and passed through a Sephadex G10 column which had been equilibrated with PBS. The column, which separates radiolabelled peptide from free iodine was eluted with PBS and 2 ml fractions collected. Radioactivity in the fractions was measured and the eluted peptides, represented by the first radioactive peak from the column, collected and stored at 4° C. until required.

[2] = test system: ADP (1 × 10^-5 M)-induced platelet aggregation; test: Inhibition of ADP-induced platelet aggregation; type: cell-based
Description: The effect of these peptides on ADP-induced platelet aggregation was determined and compared with peptide RGDS which is known to inhibit platelet aggregation.

[3] = test system: clotted blood; test: Binding of radiolabelled peptides to clotted blood
Description: as §1, §2, §3, §4

Sequence: RGDSCRGDSY
- bound peptide ([1]; 1 ng radiolabelled peptide): 0.01 ng
- bound peptide ([1]; 10 ng radiolabelled peptide): 0.85 ng
- bound peptide ([1]; 100 ng radiolabelled peptide): 9.07 ng
- percentage inhibition of ADP-induced platelet aggregation ([2]; peptide 0.1 mM): 17%
- percentage inhibition of ADP-induced platelet aggregation ([2]; peptide 0.2 mM): 57%
- percentage inhibition of ADP-induced platelet aggregation ([2]; peptide 0.4 mM): 79%
- bound peptide ([3]; 1 ng radiolabelled peptide): 0.28 ng
- bound peptide ([3]; 10 ng radiolabelled peptide): 2.64 ng
- bound peptide ([3]; 100 ng radiolabelled peptide): 29.33 ng
